Data: US20250020651A1, “PERSONALIZED MODULATION THERAPY FOR CANCER” (Faeth Therapeutics, Inc., priority 2021, published 2025)

Experiments:
[1] = system: Pancreatic cancer cells such as BxPC3, CFPAC1, PANC1, DANG, and PATU8902; experiment: Crystal Violet cell growth with chemotherapy drugs in complete or P/S/G free media; format: cell-based, Human; settings: P/S/G free media vs complete media, +10% dialyzed FBS, 3 days, Crystal Violet staining
Description: A study was performed to evaluate the efficacy of a disclosed composition in the treatment of cancer when combined with a chemotherapy drug. Pancreatic cancer cells such as BxPC3, CFPAC1, PANC1, DANG, and PATU8902 were treated with either Gemcitabine (GEM), Paclitaxel (PAC), GEM+PAC, and FOLFIRINOX (which is a combination of 5FU, Oxaliplatin, Folinic acid, and Irinotecan), in combination with complete media, or with media free of the amino acids […]), as indicated in FIG. 4 rows A-D. Cells were seeded in 96-well plates and in complete media+10% FBS. 24 hours later, cells were washed with PBS followed by addition of the indicated drugs with either complete or P/S/G free media+10% dialyzed FBS. Cells were grown for 3 more days, and cell growth was measured using Crystal Violet staining. […] Error bars denote the standard deviation.

[2] = system: Pancreatic cancer cell lines such as BxPC3, CFPAC1, PANC1, DANG and PATU8902; experiment: Crystal Violet cell growth with serabelisib in complete or P/S/G free media; format: cell-based, Human; settings: P/S/G free media vs complete media, 3 days, Crystal Violet staining
Description: A study was performed to evaluate the efficacy of disclosed compositions in the treatment of cancer when combined with a targeted anti-cancer therapy. Pancreatic cancer cell lines such as BxPC3, CFPAC1, PANC1, DANG and PATU8902 were treated with an alpha specific PI3K inhibitor, serabelisib. Cells were seeded in 96-well plates and in complete media+10% FBS. 24 hours later, cells were washed with PBS followed by addition of serabelisib with either complete or P/S/G free media+10% dialysed FBS (FIG. 6A-6F). Cells were grown for 3 more days and cell growth was measured using Crystal Violet staining. Error bars denote standard deviation. […] P/S/G starvation pushes the response curve down and to the left meaning lower concentrations of drug achieve the same cell kill.

SMILES	effect of restriction of proline, serine, and glycine on cell growth response to the drug [1]	cell kill by serabelisib under P/S/G starvation [2]
Nc1ccn([C@@H]2O[C@H](CO)[C@@H](O)C2(F)F)c(=O)n1 [gemcitabine, Gemcitabine]	sensitized cancer cells	
CC(=O)O[C@H]1C(=O)[C@@]2(C)[C@H]([C@H](OC(=O)c3ccccc3)[C@]3(O)C[C@H](OC(=O)[C@H](O)[C@@H](NC(=O)c4ccccc4)c4ccccc4)C(C)=C1C3(C)C)[C@]1(OC(C)=O)CO[C@@H]1C[C@@H]2O [paclitaxel, Paclitaxel]	sensitized cancer cells	
Nc1nc2cc(-c3ccc4ncc(C(=O)N5CCOCC5)n4c3)ccc2o1 [serabelisib]		improved cell kill at lower drug concentrations
